Test results as given in the NIST ThermoML archive (doi:10.1016/j.tca.2009.07.008).
± gives the expanded uncertainty stated by the source. Blank lines part the entries; values can stand above or below the compound they belong to.

Columns and labels:
[1] = 303.15 K; 101.33 kPa; Liquid; Capillary tube (Ostwald / Ubbelohde) method
[2] = mn = molality of the nth substance listed, in mol/kg; details: 303.15 K, 101 kPa, Liquid, Capillary tube (Ostwald / Ubbelohde) method

viscosity [1]: 0.326 ± 0.0047 mPa·s
SMILES: C1CCOC1 [tetrahydrofuran]

viscosity [1]: 0.3296 ± 0.0049 mPa·s
SMILES: CCN(CC)CC [triethylamine]

viscosity ([2]; m1 = 0.1123): 0.328 ± 0.0047 mPa·s | viscosity ([2]; m1 = 0.2842): 0.3315 ± 0.0047 mPa·s | viscosity ([2]; m1 = 0.3986): 0.3329 ± 0.0047 mPa·s | viscosity ([2]; m1 = 0.5609): 0.3353 ± 0.0047 mPa·s | viscosity ([2]; m1 = 0.7487): 0.3395 ± 0.0047 mPa·s | viscosity ([2]; m1 = 0.8957): 0.3412 ± 0.0048 mPa·s | viscosity ([2]; m1 = 1.002): 0.3436 ± 0.0048 mPa·s | viscosity ([2]; m1 = 1.139): 0.3453 ± 0.0048 mPa·s | viscosity ([2]; m1 = 1.377): 0.3513 ± 0.0048 mPa·s
SMILES: CCCN [propan-1-amine] + C1CCOC1

viscosity [1]: 0.5977 ± 0.0062 mPa·s
SMILES: CCCN(CCC)CCC [tripropylamine]

viscosity [1]: 0.3527 ± 0.005 mPa·s
SMILES: CCCN [propan-1-amine]

viscosity ([2]; m1 = 0.1229): 1.062 ± 0.0078 mPa·s | viscosity ([2]; m1 = 0.2173): 1.05 ± 0.0078 mPa·s | viscosity ([2]; m1 = 0.3227): 1.033 ± 0.0077 mPa·s | viscosity ([2]; m1 = 0.4476): 1.023 ± 0.0077 mPa·s | viscosity ([2]; m1 = 0.5768): 1.008 ± 0.0076 mPa·s | viscosity ([2]; m1 = 0.7655): 0.9912 ± 0.0075 mPa·s | viscosity ([2]; m1 = 0.8789): 0.9804 ± 0.0075 mPa·s | viscosity ([2]; m1 = 1.028): 0.9659 ± 0.0074 mPa·s | viscosity ([2]; m1 = 1.179): 0.9569 ± 0.0074 mPa·s
SMILES: CCCCN(CCCC)CCCC [tributylamine] + C1COCCO1

viscosity ([2]; m1 = 0.159): 1.054 ± 0.0078 mPa·s | viscosity ([2]; m1 = 0.2697): 1.042 ± 0.0077 mPa·s | viscosity ([2]; m1 = 0.4098): 1.018 ± 0.0076 mPa·s | viscosity ([2]; m1 = 0.5388): 0.998 ± 0.0075 mPa·s | viscosity ([2]; m1 = 0.6616): 0.98 ± 0.0074 mPa·s | viscosity ([2]; m1 = 0.8419): 0.955 ± 0.0073 mPa·s | viscosity ([2]; m1 = 0.9909): 0.932 ± 0.0072 mPa·s | viscosity ([2]; m1 = 1.135): 0.914 ± 0.0071 mPa·s | viscosity ([2]; m1 = 1.27): 0.894 ± 0.0071 mPa·s
SMILES: CCN(CC)CC [triethylamine] + C1COCCO1

viscosity [1]: 1.167 ± 0.0097 mPa·s
SMILES: CCCCN(CCCC)CCCC [tributylamine]

The next lines start with the compound.

SMILES: CCCCN [1-butanamine]
viscosity [1]: 0.4442 ± 0.0054 mPa·s

SMILES: C1COCCO1 [1,4-dioxane]
viscosity [1]: 1.075 ± 0.0079 mPa·s

SMILES: CCCCNCCCC [dibutylamine] + C1COCCO1
viscosity ([2]; m1 = 0.1225): 1.065 ± 0.0078 mPa·s | viscosity ([2]; m1 = 0.2369): 1.053 ± 0.0078 mPa·s | viscosity ([2]; m1 = 0.3608): 1.04 ± 0.0077 mPa·s | viscosity ([2]; m1 = 0.4533): 1.031 ± 0.0077 mPa·s | viscosity ([2]; m1 = 0.594): 1.019 ± 0.0076 mPa·s | viscosity ([2]; m1 = 0.7122): 1.006 ± 0.0076 mPa·s | viscosity ([2]; m1 = 0.8855): 0.9937 ± 0.0075 mPa·s | viscosity ([2]; m1 = 0.9669): 0.9865 ± 0.0075 mPa·s | viscosity ([2]; m1 = 1.138): 0.9766 ± 0.0075 mPa·s

SMILES: CCCNCCC [dipropylamine]
viscosity [1]: 0.5118 ± 0.0058 mPa·s

SMILES: CCCCNCCCC [dibutylamine] + C1CCOC1
viscosity ([2]; m1 = 0.1402): 0.3333 ± 0.0047 mPa·s | viscosity ([2]; m1 = 0.2993): 0.3417 ± 0.0048 mPa·s | viscosity ([2]; m1 = 0.4313): 0.3498 ± 0.0048 mPa·s | viscosity ([2]; m1 = 0.5953): 0.3567 ± 0.0048 mPa·s | viscosity ([2]; m1 = 0.7592): 0.3648 ± 0.0048 mPa·s | viscosity ([2]; m1 = 0.8997): 0.3735 ± 0.0049 mPa·s | viscosity ([2]; m1 = 1.027): 0.3806 ± 0.0049 mPa·s | viscosity ([2]; m1 = 1.201): 0.3912 ± 0.0049 mPa·s | viscosity ([2]; m1 = 1.381): 0.4015 ± 0.005 mPa·s

SMILES: CCCCNCCCC [dibutylamine]
viscosity [1]: 0.7584 ± 0.0071 mPa·s
